Where a name gives a salt, the structure may show the parent alone.
Test system: not given
Assay: not given
Conditions: not given

Row | melting point [°C] | SMILES
1 | 142.5 to 142.7 | CCC[C@@H](C)C[C@H](N)CC(=O)O.Cl
2 | 142.5 to 143.3 | CCCC[C@@H](C)C[C@H](N)CC(=O)O (as salt: hydrochloride)
3 | 194.2 to 195.2 | CCCC(C)(C)C[C@H](N)CC(=O)O (as salt: hydrochloride)

Row | SMILES | melting point [°C]
4 | CCC[C@@H](C)C[C@H](CN)C(=O)O (as salt: hydrochloride) [(2R,4R)-2-Aminomethyl-4-methyl-heptanoic Acid] | 226.3 to 228
5 | CCCC(C)(C)CC(CN)C(=O)O.Cl (stereo not drawn) [2-Aminomethyl-4,4-dimethyl-heptanoic Acid Hydrochloride] | 229.5 to 231

Biological target: T1, α2δ-subunit of a calcium channel (Sus scrofa, UniProt A0A287BIN3)
T1 construct: the α2δ-subunit derived from porcine brain tissue was used; from tissue; host or cells: porcine brain tissue
Assay: radioligand binding assay using [3H]-gabapentin
Conditions: α2δ-subunit derived from porcine brain tissue
Excerpt: The ability of compounds of the present invention to bind to the α2δ-subunit of a calcium channel can be determined using the following binding assay.
The radioligand binding assay using [^3H]-gabapentin and the α2δ-subunit derived from porcine brain tissue was used (See, Gee, Nicolas S et al. “The novel anticonvulsant drug, gabapentin (Neurontin), binds to the α2δ subunit of a calcium channel”. J. Biol. Chem. (1996), 271 (10), 5768–76). Compounds of the invention bind with nanomolar to micromolar affinity for the α2δ protein.

T1 sequence (A0A287BIN3 25-1109): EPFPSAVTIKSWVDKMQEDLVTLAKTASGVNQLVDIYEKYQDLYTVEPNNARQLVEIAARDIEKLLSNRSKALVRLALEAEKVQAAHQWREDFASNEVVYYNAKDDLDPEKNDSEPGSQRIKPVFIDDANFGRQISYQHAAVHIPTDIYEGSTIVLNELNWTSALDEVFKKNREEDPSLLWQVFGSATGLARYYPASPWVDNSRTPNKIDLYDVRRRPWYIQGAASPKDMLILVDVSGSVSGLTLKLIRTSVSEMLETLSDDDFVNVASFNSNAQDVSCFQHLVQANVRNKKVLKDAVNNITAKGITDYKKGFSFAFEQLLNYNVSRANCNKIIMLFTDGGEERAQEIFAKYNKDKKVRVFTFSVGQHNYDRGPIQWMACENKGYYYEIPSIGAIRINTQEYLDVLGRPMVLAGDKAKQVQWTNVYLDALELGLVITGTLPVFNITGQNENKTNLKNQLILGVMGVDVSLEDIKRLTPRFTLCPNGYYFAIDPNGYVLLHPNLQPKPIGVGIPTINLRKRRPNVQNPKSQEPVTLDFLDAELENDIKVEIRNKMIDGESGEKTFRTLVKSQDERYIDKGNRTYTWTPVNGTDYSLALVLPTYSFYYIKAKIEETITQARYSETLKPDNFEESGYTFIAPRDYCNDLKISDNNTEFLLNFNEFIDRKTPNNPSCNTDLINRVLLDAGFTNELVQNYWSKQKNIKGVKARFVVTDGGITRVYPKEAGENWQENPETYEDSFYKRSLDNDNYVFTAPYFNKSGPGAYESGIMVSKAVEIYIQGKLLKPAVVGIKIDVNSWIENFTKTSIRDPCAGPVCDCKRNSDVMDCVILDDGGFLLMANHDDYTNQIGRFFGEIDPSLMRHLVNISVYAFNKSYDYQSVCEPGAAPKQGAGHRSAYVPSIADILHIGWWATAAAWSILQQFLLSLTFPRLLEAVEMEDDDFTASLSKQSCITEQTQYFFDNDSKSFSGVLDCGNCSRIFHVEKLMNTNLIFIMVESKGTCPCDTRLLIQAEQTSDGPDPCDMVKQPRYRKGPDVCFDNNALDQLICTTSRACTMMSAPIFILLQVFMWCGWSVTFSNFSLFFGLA

Row | SMILES | affinity to the α2δ protein [nM]
6 | CCCC(C)(C)CC(CN)C(=O)O.Cl (stereo not drawn) [2-Aminomethyl-4,4-dimethyl-heptanoic Acid Hydrochloride] | 83
7 | CCC[C@@H](C)C[C@H](CN)C(=O)O [(2R,4R)-2-Aminomethyl-4-methyl-heptanoic Acid] | 29
8 | CCC[C@H](C)C[C@H](N)CC(=O)O [(3S,5S)-3-amino-5-methyl-octanoic acid] | 1000
9 | CC(C)CCCC(C)C[C@@H](N)CC(=O)O (stereo partly drawn) [R-3-amino-5,9-dimethyl-decanoic acid] | 527
